Experimental data published in PubChem BioAssay AID180 (DTP/NCI, 2004).
Values joined by “and” are separate entries in the source; they are usually repeats but may differ in a detail not shown here. Equal entries are not always repeated.

System: BDF1 mice, Adenocarcinoma 755 s.c., tumor weight T/C
Assay: NCI In Vivo Anticancer Drug Screen. Data for tumor model Adenocarcinoma 755 (subcutaneous) in B6D2F1 (BDF1) mice
Conditions: endpoint: mean tumor weight, higher = larger tumour
Outline: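 In vivo antitumor screen on a transplantable tumor line. Result equals the measure in compound-treated animals divided by the same measure in vehicle controls.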

[1] = dose: 12.0 mg/kg/injection, schedule: Q01DX011 (ip), vehicle: carboxymethylcellulose (CMC)
[2] = dose: 25.0 mg/kg/injection, schedule: Q01DX011 (ip), vehicle: carboxymethylcellulose (CMC)
[3] = dose: 50.0 mg/kg/injection, schedule: Q01DX011 (ip), vehicle: carboxymethylcellulose (CMC)
[4] = dose: 25.0 mg/kg/injection, schedule: Q01DX011 (ip), vehicle: methylcellulose (MC)

For `COC1C(OC(N)=O)C(O)C(Oc2ccc3c(O)c(NC(=O)c4ccc(O)c(CC=C(C)C)c4)c(=O)oc3c2C)OC1(C)C` (stereo not drawn), the T/C (dose: 50.0 mg/kg/injection, schedule: Q01DX011 (ip), vehicle: saline) was 78 % of control, the T/C (dose: 100.0 mg/kg/injection, schedule: Q01DX011 (ip), vehicle: saline) was 42 % of control and the T/C (dose: 200.0 mg/kg/injection, schedule: Q01DX011 (ip), vehicle: saline) was 60 % of control.
With `C1CN1P1(N2CC2)=NP(N2CC2)(N2CC2)=NP(N2CC2)(N2CC2)=NP(N2CC2)(N2CC2)=N1` the T/C (dose: 0.4 mg/kg/injection, schedule: Q01DX011 (ip), vehicle: carboxymethylcellulose (CMC)) was 48 % of control, the T/C (dose: 0.4 mg/kg/injection, schedule: Q02DX011 (ip), vehicle: carboxymethylcellulose (CMC)) was 96 % of control and the T/C (dose: 0.8 mg/kg/injection, schedule: Q01DX011 (ip), vehicle: carboxymethylcellulose (CMC)) was 22 % of control. For the same compound, the T/C (dose: 0.8 mg/kg/injection, schedule: Q02DX011 (ip), vehicle: carboxymethylcellulose (CMC)) was 54 % of control, the T/C (dose: 1.5 mg/kg/injection, schedule: Q01DX011 (ip), vehicle: methylcellulose (MC)) was 45 % of control and the T/C (dose: 1.5 mg/kg/injection, schedule: Q02DX006 (ip), vehicle: carboxymethylcellulose (CMC)) was 50 % of control. The T/C (dose: 1.6 mg/kg/injection, schedule: Q01DX011 (ip), vehicle: carboxymethylcellulose (CMC)) was 6 % of control, the T/C (dose: 1.6 mg/kg/injection, schedule: Q02DX011 (ip), vehicle: carboxymethylcellulose (CMC)) was 31 % of control and the T/C (dose: 3.0 mg/kg/injection, schedule: Q01DX011 (ip), vehicle: methylcellulose (MC)) was 13 % of control. The T/C (dose: 3.0 mg/kg/injection, schedule: Q02DX006 (ip), vehicle: carboxymethylcellulose (CMC)) was 10 % of control, the T/C (dose: 3.2 mg/kg/injection, schedule: Q02DX011 (ip), vehicle: carboxymethylcellulose (CMC)) was 1 % of control and the T/C (dose: 6.0 mg/kg/injection, schedule: Q02DX006 (ip), vehicle: carboxymethylcellulose (CMC)) was 1 % of control.
`CC[N+](C)(C)c1ncnc2nc[nH]c12` was tested, and the T/C [1] was 88 % of control, the T/C (dose: 17.0 mg/kg/injection, schedule: Q01DX011 (ip), vehicle: carboxymethylcellulose (CMC)) was 80 % of control and the T/C [2] was 47 % of control and 52 % of control. For the same compound, the T/C (dose: 37.0 mg/kg/injection, schedule: Q01DX011 (ip), vehicle: carboxymethylcellulose (CMC)) was 33 % of control, the T/C [3] was 22 % of control and the T/C (dose: 75.0 mg/kg/injection, schedule: Q01DX011 (ip), vehicle: carboxymethylcellulose (CMC)) was 6 % of control. The T/C (dose: 100.0 mg/kg/injection, schedule: Q01DX011 (ip), vehicle: carboxymethylcellulose (CMC)) was 3 % of control.
In the case of `CSc1nc(Cl)c(Br)c(Sc2nc(N)nc3nc[nH]c23)n1`, the T/C (dose: 6.25 mg/kg/injection, schedule: Q01DX011 (ip), vehicle: methylcellulose (MC)) is reported as 39 % of control, the T/C [1] is reported as 59 % of control and the T/C (dose: 12.0 mg/kg/injection, schedule: Q01DX011 (ip), vehicle: methylcellulose (MC)) is reported as 29 % of control. For the same compound, the T/C (dose: 12.5 mg/kg/injection, schedule: Q01DX011 (ip), vehicle: methylcellulose (MC)) was 27 % of control, the T/C [2] was 28 % of control and the T/C [4] was 33 % of control and 48 % of control. For the same compound, the T/C [3] was 5 % of control, the T/C (dose: 50.0 mg/kg/injection, schedule: Q01DX011 (ip), vehicle: methylcellulose (MC)) was 42 % of control and the T/C (dose: 100.0 mg/kg/injection, schedule: Q01DX011 (ip), vehicle: methylcellulose (MC)) was 7 % of control.
With `CC1CCCN(/N=N/c2nc3c([nH]2)c(=O)n(C)c(=O)n3C)C1` (stereo not drawn) the T/C [4] was 66 % of control and the T/C (dose: 75.0 mg/kg/injection, schedule: Q01DX011 (ip), vehicle: methylcellulose (MC)) was 61 % of control.
With `CC(C)C(=O)OCC1OC(n2cnc3c(=S)nc(N)[nH]c32)C(OC(=O)C(C)C)C1OC(=O)C(C)C` (stereo not drawn) the T/C (dose: 1.5 mg/kg/injection, schedule: Q01DX011 (ip), vehicle: carboxymethylcellulose (CMC)) was 76 % of control and 79 % of control, the T/C (dose: 3.0 mg/kg/injection, schedule: Q01DX011 (ip), vehicle: carboxymethylcellulose (CMC)) was 43 % of control and the T/C (dose: 6.0 mg/kg/injection, schedule: Q01DX011 (ip), vehicle: carboxymethylcellulose (CMC)) was 25 % of control. The T/C [1] was 18 % of control.
With `CC(Cc1ccccc1)NC(=O)CCl` (stereo not drawn) the T/C (dose: 37.0 mg/kg/injection, schedule: Q01DX011 (im), vehicle: other) was 68 % of control, the T/C (dose: 37.0 mg/kg/injection, schedule: Q01DX011 (oral), vehicle: other) was 71 % of control and the T/C (dose: 37.0 mg/kg/injection, schedule: Q01DX011 (sc), vehicle: other) was 118 % of control. For the same compound, the T/C (dose: 50.0 mg/kg/injection, schedule: Q01DX011 (im), vehicle: other) was 68 % of control, the T/C (dose: 50.0 mg/kg/injection, schedule: Q01DX011 (oral), vehicle: other) was 106 % of control and the T/C (dose: 50.0 mg/kg/injection, schedule: Q01DX011 (sc), vehicle: other) was 73 % of control. The T/C (dose: 75.0 mg/kg/injection, schedule: Q01DX011 (im), vehicle: other) was 48 % of control, the T/C (dose: 75.0 mg/kg/injection, schedule: Q01DX011 (oral), vehicle: other) was 87 % of control and the T/C (dose: 75.0 mg/kg/injection, schedule: Q01DX011 (sc), vehicle: other) was 63 % of control. For the same compound, the T/C (dose: 112.0 mg/kg/injection, schedule: Q01DX011 (oral), vehicle: other) was 82 % of control.
With `CCOCCNS(=O)(=O)c1ncnc2nc[nH]c12` the T/C (dose: 11.2 mg/kg/injection, schedule: Q01DX011 (ip), vehicle: carboxymethylcellulose (CMC)) was 53 % of control, the T/C (dose: 22.5 mg/kg/injection, schedule: Q01DX011 (ip), vehicle: carboxymethylcellulose (CMC)) was 9 % of control and the T/C (dose: 30.0 mg/kg/injection, schedule: Q01DX011 (ip), vehicle: carboxymethylcellulose (CMC)) was 2 % of control. For the same compound, the T/C (dose: 45.0 mg/kg/injection, schedule: Q01DX011 (ip), vehicle: carboxymethylcellulose (CMC)) was 3 % of control and the T/C (dose: 60.0 mg/kg/injection, schedule: Q01DX011 (ip), vehicle: carboxymethylcellulose (CMC)) was 1 % of control.
For `CC(=O)[C@H]1[C@H](O)C[C@H]2[C@@H]3CCC4=CC(=O)CC[C@]4(C)[C@@]3(F)[C@@H](O)C[C@@]21C`, the T/C (dose: 100.0 mg/kg/injection, schedule: Q01DX011 (sc), vehicle: steriod suspending solution) was 48 % of control, the T/C (dose: 125.0 mg/kg/injection, schedule: Q01DX011 (oral), vehicle: steriod suspending solution) was 74 % of control and the T/C (dose: 200.0 mg/kg/injection, schedule: Q01DX011 (sc), vehicle: steriod suspending solution) was 38 % of control. For the same compound, the T/C (dose: 250.0 mg/kg/injection, schedule: Q01DX011 (oral), vehicle: steriod suspending solution) was 57 % of control, the T/C (dose: 400.0 mg/kg/injection, schedule: Q01DX011 (sc), vehicle: steriod suspending solution) was 36 % of control and the T/C (dose: 500.0 mg/kg/injection, schedule: Q01DX011 (oral), vehicle: steriod suspending solution) was 62 % of control. The T/C (dose: 800.0 mg/kg/injection, schedule: Q01DX011 (sc), vehicle: steriod suspending solution) was 26 % of control and the T/C (dose: 1000.0 mg/kg/injection, schedule: Q01DX011 (oral), vehicle: steriod suspending solution) was 58 % of control.
`CCC(C)n1ncc2c(N(C)C)ncnc21` (stereo not drawn) was tested, and the T/C (dose: 16.25 mg/kg/injection, schedule: Q01DX011 (ip), vehicle: saline) was 54 % of control and 73 % of control, the T/C (dose: 32.5 mg/kg/injection, schedule: Q01DX011 (ip), vehicle: saline) was 42 % of control and 46 % of control and the T/C (dose: 65.0 mg/kg/injection, schedule: Q01DX011 (ip), vehicle: saline) was 6 % of control.
In the case of `CCOC(=O)NP(=O)(N1CC1)N1CC1`, the T/C (dose: 2.37 mg/kg/injection, schedule: Q01DX011 (ip), vehicle: carboxymethylcellulose (CMC)) is reported as 118 % of control, the T/C (dose: 2.5 mg/kg/injection, schedule: Q01DX011 (ip), vehicle: carboxymethylcellulose (CMC)) is reported as 67 % of control and the T/C (dose: 4.75 mg/kg/injection, schedule: Q01DX011 (ip), vehicle: carboxymethylcellulose (CMC)) is reported as 104 % of control. For the same compound, the T/C (dose: 5.0 mg/kg/injection, schedule: Q01DX011 (ip), vehicle: carboxymethylcellulose (CMC)) was 73 % of control, the T/C (dose: 7.6 mg/kg/injection, schedule: Q01DX011 (ip), vehicle: carboxymethylcellulose (CMC)) was 101 % of control and the T/C (dose: 8.0 mg/kg/injection, schedule: Q01DX011 (ip), vehicle: carboxymethylcellulose (CMC)) was 52 % of control. For the same compound, the T/C (dose: 9.5 mg/kg/injection, schedule: Q01DX011 (ip), vehicle: carboxymethylcellulose (CMC)) was 61 % of control and 75 % of control, the T/C (dose: 10.0 mg/kg/injection, schedule: Q01DX011 (ip), vehicle: carboxymethylcellulose (CMC)) was 58 % of control and 77 % of control and the T/C (dose: 12.66 mg/kg/injection, schedule: Q01DX011 (ip), vehicle: carboxymethylcellulose (CMC)) was 54 % of control. For the same compound, the T/C (dose: 13.3 mg/kg/injection, schedule: Q01DX011 (ip), vehicle: carboxymethylcellulose (CMC)) was 18 % of control, the T/C (dose: 19.0 mg/kg/injection, schedule: Q01DX011 (ip), vehicle: carboxymethylcellulose (CMC)) was 17 % of control and 20 % of control and the T/C (dose: 20.0 mg/kg/injection, schedule: Q01DX011 (ip), vehicle: carboxymethylcellulose (CMC)) was 14 % of control.
In the case of `CNc1ncnc2c1cnn2C1CCCO1` (stereo not drawn), the T/C (dose: 2.3 mg/kg/injection, schedule: Q01DX011 (ip), vehicle: methylcellulose (MC)) is reported as 71 % of control, the T/C (dose: 4.6 mg/kg/injection, schedule: Q01DX011 (ip), vehicle: methylcellulose (MC)) is reported as 33 % of control and the T/C (dose: 9.3 mg/kg/injection, schedule: Q01DX011 (ip), vehicle: methylcellulose (MC)) is reported as 14 % of control.
